Assay [1] relates to HIV-1 (strain IIIB). The experiment in a line: Antiviral activity assay in MT4 cells (propidium iodide based). The assay is classed as cell-based. An outline of the steps:
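Compound serial dilutions in RPMI/FCS received MT4 cells pre-infected 1 hr at 37°C with HIV-1 IIIB at 100×TCID50. After 5 days' culture and Nonidet-40 lysis, well DNA content was measured by propidium iodide dye; mock-infected cells served as control.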

The test system of assay [2] is D545701-14 multi protease inhibitor resistant virus. The experiment in a line: Anti-viral activity against resistant virus D545701-14 in MT4 cells. The assay is classed as cell-based, HIV-1. As for the experimental part: (§1) Exponentially growing MT4 cells were harvested and centrifuged at 1000 rpm for 10 min in a Jouan centrifuge (model CR 4 12). […] Cell aliquots were infected by the addition of HIV-1 (strain IIIB) diluted to give a viral multiplicity of infection of 100×TCID50. […] Cell infection was allowed to proceed for 1 hr at 37° in a tissue culture incubator with humidified 5% CO2 atmosphere. After the 1 hr incubation the virus/cell suspensions were diluted 6-fold with fresh medium, and 125 μl of the cell suspension was added to each well of the plate containing pre-diluted compound. Plates were then placed in a tissue culture incubator with humidified 5% CO2 for 5 days. At the end of the incubation period, 27 μl of 5% Nonidet-40 was added to each well of the incubation plate. After thorough mixing with a Costar multitip pipetter, 60 μl of the mixture was transferred to filter-bottomed 96-well plates. The plates were analyzed in an automated assay instrument (Screen Machine, Idexx Laboratories). The assay makes use of a propidium iodide dye to estimate the DNA content of each well.
(§2) Anti-Viral Activity Against Resistant Viruses
EP13 and DS45701, two multi protease inhibitor resistant viruses were used to assess potency against mutant viruses. These viruses contain the following mutations relative to the consensus sequence of wild type virus: […]

Assay [3] has as its system EP13 multi protease inhibitor resistant virus. The assay is described as follows: Anti-viral activity against resistant virus EP13 in MT4 cells. The assay is classed as cell-based, HIV-1. As for the experimental part:
as §1, §2
EP13 and DS45701, two multi protease inhibitor resistant viruses were used to assess potency against mutant viruses. These viruses contain the following mutations relative to the consensus sequence of wild type virus:
EP13: Protease amino acid sequence: M46I, L63P, A71V, V82F/L, I84V; No reverse transcriptase mutations.

Where [4] appears, read: Human immunodeficiency virus 1, IIIB, wild type HIV-1 virus, MT4 cells, read-out: Wildtype virus - IC50.
The mark [5] stands for this setting: Human immunodeficiency virus 1, MT4, read-out: D545701-14 mutant - IC50, D545701-14 multi protease inhibitor resistant virus, MT4 cells.
[6] abbreviates: Human immunodeficiency virus 1, MT4, read-out: EP13 mutant IC50, EP13 multi protease inhibitor resistant virus, MT4 cells.
Where [7] appears, read: Human immunodeficiency virus 1, MT4, read-out: Reference data for protease inhibitors (D545701-14), D545701-14 mutant virus.
The mark [8] stands for this setting: Human immunodeficiency virus 1, MT4, read-out: Reference data for protease inhibitors (EP13), EP13 mutant virus.
Setting [9] is: Human immunodeficiency virus 1, MT4, 120 h, MT-4 cells, HIV-1 strain IIIB, 5 days, read-out: IC50 (Antiviral Activity of Compounds of the Invention).

Like-named read-outs stand apart in the source and are kept apart here.

For `CC(C)CN(C[C@@H](O)[C@H](Cc1ccc(OCCCNc2ncccn2)cc1)NC(=O)OC1CO[C@H]2OCC[C@@H]12)S(=O)(=O)c1ccc2c(c1)OCO2` (stereo in doubt) [Compound 271, (3R,3aS,6aR)-hexahydrofuro[2,3-b]furan-3-yl (1S,2R)-3-[(1,3-benzodioxol-5-ylsulfonyl)(isobutyl)amino]-2-hydroxy-1-{4-[3-(2-pyrimidinylamino)propoxy]benzyl}propylcarbamate], the IC50 in assay [1] (setting [4]), in assay [2] (setting [5]) and in assay [3] (setting [6]) was 1 to 10 nM each time.
`CC(C)CN(C[C@@H](O)[C@H](Cc1ccc(OCCCNc2cc[nH]n2)cc1)NC(=O)OC1CO[C@H]2OCC[C@@H]12)S(=O)(=O)c1ccc2c(c1)OCO2` (stereo in doubt) [Compound 281, (3R,3aS,6aR)-hexahydrofuro[2,3-b]furan-3-yl (1S,2R)-3-[(1,3-benzodioxol-5-ylsulfonyl)(isobutyl)amino]-2-hydroxy-1-{4-[3-(1H-pyrazol-3-ylamino)propoxy]benzyl}propylcarbamate]: the IC50 in assay [1] (setting [4]), in assay [2] (setting [5]) and in assay [3] (setting [6]) was 1 to 10 nM in each case.
As to `CNC(=O)CCCOc1ccc(C[C@H](NC(=O)OC2CO[C@H]3OCC[C@@H]23)[C@H](O)CN(CC(C)C)S(=O)(=O)c2ccc3c(c2)OCO3)cc1` (stereo in doubt) [Compound 286, (3R,3aS,6aR)-hexahydrofuro[2,3-b]furan-3-yl (1S,2R)-3-[(1,3-benzodioxol-5-ylsulfonyl)(isobutyl)amino]-2-hydroxy-1-{4-[4-(methylamino)-4-oxobutoxy]benzyl}propylcarbamate], the IC50 in assay [1] (setting [4]) lay in the range of 10 to 100 nM; in assay [2] (setting [5]) it was 1 to 10 nM; in assay [3] (setting [6]), 1 to 10 nM.
Take `CC(C)CN(C[C@@H](O)[C@H](Cc1ccc(OCCCC(=O)N(C)C)cc1)NC(=O)OC1CO[C@H]2OCC[C@@H]12)S(=O)(=O)c1ccc2c(c1)OCO2` (stereo in doubt) [Compound 287, (3R,3aS,6aR)-hexahydrofuro[2,3-b]furan-3-yl (1S,2R)-3-[(1,3-benzodioxol-5-ylsulfonyl)(isobutyl)amino]-1-{4-[4-(dimethylamino)-4-oxobutoxy]benzyl}-2-hydroxypropylcarbamate]: the IC50 in assay [1] (setting [4]), in assay [2] (setting [5]) and in assay [3] (setting [6]) was 1 to 10 nM each time.
Consider `CC(C)CN(CC(O)[C@H](Cc1ccc(OCc2ccccn2)cc1)NC(=O)O[C@H]1CO[C@H]2OCC[C@H]21)S(=O)(=O)c1ccc2c(c1)OCCO2` (stereo in doubt) [Compound 337, (3R,3aS,6aR)-hexahydrofuro[2,3-b]furan-3-yl (1S,2S)-3-[(2,3-dihydro-1,4-benzodioxin-6-ylsulfonyl)(isobutyl)amino]-2-hydroxy-1-[4-(2-pyridinylmethoxy)benzyl]propylcarbamate], for which the IC50 in assay [1] (setting [4]), in assay [2] (setting [5]) and in assay [3] (setting [6]) was 1 to 10 nM each time.
Consider `CC(C)CN(C[C@@H](O)[C@H](Cc1ccccc1)NC(=O)O[C@H]1CCOC1)S(=O)(=O)c1ccc(N)cc1` [Amprenavir, reference compound], for which the IC50 was greater than 1000 nM in assay [2] (setting [7]) and 600 nM in assay [3] (setting [8]).
Consider `CC(C)CN(C[C@@H](O)[C@H](Cc1ccc(OCc2cccnc2)cc1)NC(=O)O[C@H]1CO[C@H]2OCC[C@H]21)S(=O)(=O)c1ccc2c(c1)OCO2` [Compound 52, Bis-THF Methylenedioxybenzenesulfonamide 3-picolyl Tethered Product], for which the IC50 in assay [1] (setting [4]) was 10 to 100 nM; in assay [1] (setting [9]) it was 1 to 10 nM; in assay [2] (setting [5]), 1 to 10 nM; in assay [3] (setting [6]), 1 to 10 nM.
With `CC(C)CN(C[C@@H](O)[C@H](Cc1ccc(OCc2ccccn2)cc1)NC(=O)O[C@H]1CO[C@H]2OCC[C@H]21)S(=O)(=O)c1ccc2c(c1)OCO2` [Compound 53, Bis-THF Methylenedioxybenzenesulfonamide 2-picolyl Tethered Product], the IC50 in assay [1] (setting [4]), in assay [1] (setting [9]), in assay [2] (setting [5]) and in assay [3] (setting [6]) was 1 to 10 nM throughout.
Regarding `CC(C)CN(C[C@@H](O)[C@H](Cc1ccc(OCc2ccncc2)cc1)NC(=O)O[C@H]1CO[C@H]2OCC[C@H]21)S(=O)(=O)c1ccc2c(c1)OCO2` [Compound 54, Bis-THF Methylenedioxybenzenesulfonamide 4-picolyl Tethered Product], the IC50 was 10 to 100 nM in assay [1] (setting [4]), 1 to 10 nM in assay [1] (setting [9]), 1 to 10 nM in assay [2] (setting [5]) and 1 to 10 nM in assay [3] (setting [6]).
`Cc1cc(COc2ccc(C[C@H](NC(=O)O[C@H]3CO[C@H]4OCC[C@H]43)[C@H](O)CN(CC(C)C)S(=O)(=O)c3ccc4c(c3)OCO4)cc2)no1` [Compound 55, Bis-THF Methylenedioxybenzenesulfonamide 3-methyl-5-methylisoxazole Tethered Product]: the IC50 in assay [1] (setting [9]) is less than 1 nM; in assay [2] (setting [5]), 1 to 10 nM; in assay [3] (setting [6]) it was 1 to 10 nM.
Take `CC(C)CN(C[C@@H](O)[C@H](Cc1ccc(OCCc2ccccc2)cc1)NC(=O)O[C@H]1CO[C@H]2OCC[C@H]21)S(=O)(=O)c1ccc2c(c1)OCO2` [Compound 202, (3R,3aS,6aR)hexahydrofuro[2,3-b]furan-3-yl (1S,2R)-3-[(1,3-benzodioxol-5-ylsulfonyl)(isobutyl)amino]-2-hydroxy-1-[4-(phenethyloxy)benzyl]propylcarbamate]: the results for the IC50 in assay [1] (setting [4]), in assay [2] (setting [5]) and in assay [3] (setting [6]) were less than 1 nM, 1 to 10 nM and less than 1 nM, respectively.
`CC(C)CN(C[C@@H](O)[C@H](Cc1ccc(OS(=O)(=O)c2ccc([N+](=O)[O-])cc2)cc1)NC(=O)O[C@@H]1CO[C@H]2OCC[C@H]21)S(=O)(=O)c1ccc([N+](=O)[O-])cc1` [Compound 297, 4-((2S,3R)-2-({[(3S,3aS,6aR)-hexahydrofuro[2,3-b]furan-3-yloxy]carbonyl}amino)-3-hydroxy-4-{isobutyl[(4-nitrophenyl)sulfonyl]amino}butyl)phenyl 4-nitrobenzenesulfonate]: the IC50 in assay [1] (setting [4]) and in assay [3] (setting [6]) was 10 to 100 nM throughout.
For `CC(C)CN(C[C@@H](O)[C@H](Cc1ccc(OCCCc2ccccc2)cc1)NC(=O)O[C@H]1CO[C@H]2OCC[C@H]21)S(=O)(=O)c1ccc2c(c1)OCO2` [Compound 353, (3R,3aS,6aR)hexahydrofuro[2,3-b]furan-3-yl (1S,2R)-3-[(1,3-benzodioxol-5-ylsulfonyl)(isobutyl)amino]-2-hydroxy-1-[4-([3-phenylpropyl]oxy)benzyl]propylcarbamate], the IC50 in assay [2] (read-out: D545701-14 mutant - IC50, D545701-14 multi protease inhibitor resistant virus, MT4 cells) is 1 to 10 nM; in assay [3] (read-out: EP13 mutant IC50, EP13 multi protease inhibitor resistant virus, MT4 cells), less than 1 nM.
On to `CC(C)CN(C[C@@H](O)[C@H](Cc1ccc(OCc2ccc(F)cc2)cc1)NC(=O)O[C@H]1CO[C@H]2OCC[C@H]21)S(=O)(=O)c1ccc2c(c1)OCO2` [Compound 371], for which the IC50 fell in the range of 10 to 100 nM in assay [1] (wild type HIV-1 virus, MT4 cells, read-out: Wildtype virus - IC50) and 1 to 10 nM in assay [3] (EP13 multi protease inhibitor resistant virus, MT4 cells, read-out: EP13 mutant IC50).
Take `CC(C)(C)NC(=O)[C@@H]1CN(Cc2cccnc2)CCN1C[C@@H](O)C[C@@H](Cc1ccccc1)C(=O)N[C@H]1c2ccccc2C[C@H]1O` [Indinavir, reference compound]: the results for the IC50 in assay [2] (setting [7]) and in assay [3] (setting [8]) were 700 nM and 560 nM, respectively.
The like results for `CC(C)c1nc(CN(C)C(=O)N[C@H](C(=O)N[C@@H](Cc2ccccc2)C[C@H](O)[C@H](Cc2ccccc2)NC(=O)OCc2cncs2)C(C)C)cs1` [Ritonavir, reference compound] were, in that order, greater than 10000 nM and greater than 600 nM.

The values are drawn from US8455497B2, “Inhibitors of aspartyl protease” (Vertex Pharmaceuticals Incorporated, priority 1999, dated 2013).
